Source: article PMC7618375, “Structure and Methyl-lysine Binding Selectivity of the HUSH Complex Subunit MPP8” (Journal of molecular biology, 2024)
Non-standard residues stand in square brackets, D forms with d. Residues, ends and D or L forms follow the SMILES beside them. Lys(Me3) = C[N+](C)(C)CCCC[C@H](N)C(=O)O

Target: T1, MPP8 CD (chromodomain, residues 55–116) (Homo sapiens, UniProt Q99549)
T1 construct: The MPP8 CD (residues 55–116) was cloned with a tobacco etch virus (TEV) protease cleavage site; His6 (N); TEV protease cleavage site (ENLYFQG) (N); made in house; host or cells: E. coli BL21 (DE3)
T1 sequence (Q99549 55-116): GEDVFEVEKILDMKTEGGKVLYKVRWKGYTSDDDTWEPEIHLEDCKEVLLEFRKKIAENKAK
Assay: Isothermal titration calorimetry (ITC) of H3K9 and H3K9-like peptides titrated into MPP8 CD
Assay type: binding
Settings: 50 mM HEPES pH 7.4, 0.1 M NaCl, 0.5 mM TCEP, 25 °C, single-site model
Procedure: H3K9 and H3K9-like peptides, unmethylated or lysine-trimethylated, were chemically synthesized (Bio Basic Inc/NBS Biologicals Ltd). Binding of MPP8 CD to H3K9 and H3K9-like peptides was analyzed in 50 mM HEPES pH 7.4, 0.1 M NaCl, 0.5 mM TCEP at 25 °C (298 K), with an AutoiTC200 calorimeter (MicroCal). The sample cell was loaded with 0.37 ml of 50 μM MPP8 CD and the titrant syringe with 750 μM peptide. 20 serial injections of […] peptide solution were performed at 3 min intervals. The stirring speed was 1,000 rpm and the reference power was maintained at 6.06 µcal s^−1. The net heat absorption or release associated with each injection was calculated by subtracting the heat associated with the injection of peptide solution to buffer. Thermodynamic parameters were extracted from a curve fit to the data to a single-site model with Origin 7.0 (MicroCal).

[1] = 50 μM MPP8 CD in cell, 750 μM peptide in syringe

Kd (Figure 4B)	Compound	Kd [1]
–	CSCC[C@H](NC(=O)[C@@H](NC(=O)[C@H](CCCC[N+](C)(C)C)NC(=O)[C@H](CCCNC(=N)N)NC(=O)[C@H](C)NC(=O)[C@H](CCCCN)NC(=O)[C@H](Cc1ccccc1)NC(=O)[C@@H](NC(=O)[C@@H](N)CCCCN)C(C)C)[C@@H](C)O)C(=O)N[C@@H](CCCNC(=N)N)C(=O)N[C@H](C(=O)N[C@@H](CO)C(=O)O)C(C)C [ATF7IP 10-21 K16me3] (H-KVFKAR[Lys(Me3)]TMRVS-OH)	0.193 ± 0.031 µM
–	CSCC[C@H](NC(=O)[C@@H](NC(=O)[C@H](CCCC[N+](C)(C)C)NC(=O)[C@H](CCCNC(=N)N)NC(=O)[C@H](C)NC(=O)[C@H](CCCNC(=N)N)NC(=O)[C@H](Cc1c[nH]cn1)NC(=O)[C@@H](NC(=O)[C@@H](N)CCCCN)C(C)C)[C@@H](C)O)C(=O)N[C@@H](CO)C(=O)N[C@@H](CCCCN)C(=O)N1CCC[C@H]1C(=O)O [G9a 179-190 K185me3] (H-KVHRAR[Lys(Me3)]TMSKP-OH)	1.31 µM
–	CSCC[C@H](NC(=O)[C@@H](NC(=O)[C@H](CCCC[N+](C)(C)C)NC(=O)[C@H](CCCNC(=N)N)NC(=O)[C@H](C)NC(=O)[C@H](CCCNC(=N)N)NC(=O)[C@H](Cc1c[nH]cn1)NC(=O)[C@@H](NC(=O)[C@@H](N)CCCCN)C(C)C)[C@@H](C)O)C(=O)N1CCC[C@H]1C(=O)N[C@@H](CCCCN)C(=O)N[C@@H](CO)C(=O)N[C@H](C(=O)O)C(C)C [GLP 199-211 K205me3] (H-KVHRAR[Lys(Me3)]TMPKSV-OH)	0.337 ± 0.064 µM
–	C[C@H](NC(=O)[C@H](CCCCN)NC(=O)CNC(=O)CNC(=O)[C@@H](NC(=O)[C@H](CO)NC(=O)[C@H](CCCC[N+](C)(C)C)NC(=O)[C@H](CCCNC(=N)N)NC(=O)[C@H](C)NC(=O)[C@@H](NC(=O)[C@H](CCC(N)=O)NC(=O)[C@@H](N)CCCCN)[C@@H](C)O)[C@@H](C)O)C(=O)O [H3.1 4-15 K9me3, reference compound]	0.769 ± 0.065 µM
–	CC(C)C[C@H](N)C(=O)N[C@@H](C)C(=O)N[C@H](C(=O)N[C@@H](CCCCN)C(=O)N[C@@H](C)C(=O)N[C@@H](C)C(=O)N[C@@H](CCCNC(=N)N)C(=O)N[C@@H](CCCC[N+](C)(C)C)C(=O)N[C@@H](CO)C(=O)N[C@@H](C)C(=O)N1CCC[C@H]1C(=O)N[C@@H](C)C(=O)N[C@H](C(=O)NCC(=O)NCC(=O)N[C@H](C(=O)N[C@@H](CCCCN)C(=O)O)C(C)C)[C@@H](C)O)[C@@H](C)O [H3.1 20-36 K27me3, reference compound]	> 50 µM
–	CC[C@H](C)[C@H](NC(=O)CNC(=O)[C@H](Cc1c[nH]cn1)NC(=O)[C@@H](NC(=O)[C@H](CO)NC(=O)[C@H](CCCC[N+](C)(C)C)NC(=O)[C@H](CC(C)C)NC(=O)[C@H](C)NC(=O)[C@H](Cc1ccccc1)NC(=O)CNC(=O)[C@@H](N)CCCNC(=N)N)[C@@H](C)O)C(=O)O [SETDB1 1165-1175 K1170me3] (H-RGFAL[Lys(Me3)]STHGI-OH)	1.55 µM
> 80 µM	CC[C@H](C)[C@H](NC(=O)CNC(=O)[C@H](Cc1c[nH]cn1)NC(=O)[C@@H](NC(=O)[C@@H](N)CO)[C@@H](C)O)C(=O)N[C@@H](C)C(=O)N[C@H](C(=O)N[C@@H](CCCC[N+](C)(C)C)C(=O)N[C@@H](CO)C(=O)N[C@H](C(=O)N[C@@H](CC(N)=O)C(=O)N[C@@H](CCSC)C(=O)N[C@@H](C)C(=O)N[C@@H](CO)C(=O)O)[C@@H](C)O)[C@@H](C)CC [SETDB1 1171-1184 K1178me3] (H-STHGIAI[Lys(Me3)]STNMAS-OH; N-terminus and C-terminus assumed)	> 50 µM
